Our source for the Ki and IC50 values is patent publication US9546152B2 (MERCK SHARP & DOHME CORP., priority 2012, dated 2017).

Where only a bound is given, the exact number is not on record here.

Assay [1] addresses T1, human orexin-2 receptor (Homo sapiens (Human), UniProt O43614). Briefly: radioligand binding assay, orexin-2 receptor. As to conditions: membranes prepared from CHO cells expressing the OX2 receptor; read-out: hOX2R BIND hKi. The method, then:
(§1) In a typical experiment the OX1 and OX2 receptor antagonistic activity of the compounds of the present invention was determined in accordance with the following experimental method. For intracellular calcium measurements, Chinese hamster ovary (CHO) cells expressing the rat orexin-1 receptor or the human orexin-2 receptor, are grown in Iscove's modified DMEM containing 2 mM L-glutamine, […], 1% hypoxanthine-thymidine supplement, 100 U/ml penicillin, 100 μg/ml streptomycin and 10% heat-inactivated fetal calf serum (FCS). The cells are seeded at 20,000 cells/well into Becton-Dickinson black 384-well clear bottom sterile plates coated with poly-D-lysine. All reagents were from GIBCO-Invitrogen Corp. The seeded plates are incubated overnight at 37° C. and 5% CO2. Ala-6,12 human orexin-A as the agonist is prepared as a 1 mM stock solution in 1% bovine serum albumin (BSA) and diluted in assay buffer (HBSS containing 20 mM HEPES, 0.1% BSA and 2.5 mM probenecid, pH7.4) for use in the assay at a final concentration of 70 pM. Test compounds are prepared as 10 mM stock solution in DMSO, then diluted in 384-well plates, first in DMSO, then assay buffer. On the day of the assay, cells are washed 3 times with 100 μl assay buffer and then incubated for 60 min (37° C., 5% CO2) in 60 μl assay buffer containing 1 μM Fluo-4AM ester, 0.02% pluronic acid, and 1% BSA. The dye loading solution is then aspirated and cells are washed 3 times with 100 μl assay buffer. 30 μl of that same buffer is left in each well. Within the Fluorescent Imaging Plate Reader (FLIPR, Molecular Devices), test compounds are added to the plate in a volume of 25 μl, incubated for 5 min and finally 25 μl of agonist is added. Fluorescence is measured for each well at 1 second intervals for 5 minutes and the height of each fluorescence peak is compared to the height of the fluorescence peak induced by 70 pM Ala-6,12 orexin-A with buffer in place of antagonist. […] Alternatively, compound potency can be assessed by a radioligand binding assay (described in Bergman et. al. Bioorg. Med. Chem. Lett. 2008, 18, 1425-1430) in which the inhibition constant (Ki) is determined in membranes prepared from CHO cells expressing either the OX1 or OX2 receptor. The intrinsic orexin receptor antagonist activity of a compound which may be used in the present invention may be determined by these assays.

Assay [2] deals with T1, human orexin-2 receptor. The assay is described as follows: FLIPR Ca2+ Flux Assay, orexin-2 receptor. Format: cell-based. As to conditions: CHO cells expressing the human orexin-2 receptor; agonist 70 pM Ala-6,12 human orexin-A; read-out: hOX2R FLIPR IC50. The method, then: as §1
(Calcium assays in cells follow changes in intracellular calcium, usually with a dye or a luminescent sensor.)

Another assay concerns the target rat orexin-1 receptor (Rattus norvegicus (Rat), UniProt P56718). The assay is described as follows: FLIPR Ca2+ Flux Assay, orexin-1 receptor. Format: cell-based. The note with it: CHO cells expressing the rat orexin-1 receptor; agonist 70 pM Ala-6,12 human orexin-A; read-out: hOX1R FLIPR IC50. The method, then:
as §1

T1 sequence (O43614 whole entry): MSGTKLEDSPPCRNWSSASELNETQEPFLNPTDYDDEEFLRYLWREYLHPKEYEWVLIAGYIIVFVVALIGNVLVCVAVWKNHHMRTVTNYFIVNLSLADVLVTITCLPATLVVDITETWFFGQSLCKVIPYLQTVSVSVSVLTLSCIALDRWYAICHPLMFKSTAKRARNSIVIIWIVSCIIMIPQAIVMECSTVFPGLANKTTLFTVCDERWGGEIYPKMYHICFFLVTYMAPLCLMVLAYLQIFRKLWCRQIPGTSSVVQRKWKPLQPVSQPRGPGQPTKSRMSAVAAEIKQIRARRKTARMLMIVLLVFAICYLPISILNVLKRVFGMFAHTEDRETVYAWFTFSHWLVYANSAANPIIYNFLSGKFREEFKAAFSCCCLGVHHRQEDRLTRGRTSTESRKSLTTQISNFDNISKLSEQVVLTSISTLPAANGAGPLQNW
Chain of rat orexin-1 receptor (P56718 whole entry): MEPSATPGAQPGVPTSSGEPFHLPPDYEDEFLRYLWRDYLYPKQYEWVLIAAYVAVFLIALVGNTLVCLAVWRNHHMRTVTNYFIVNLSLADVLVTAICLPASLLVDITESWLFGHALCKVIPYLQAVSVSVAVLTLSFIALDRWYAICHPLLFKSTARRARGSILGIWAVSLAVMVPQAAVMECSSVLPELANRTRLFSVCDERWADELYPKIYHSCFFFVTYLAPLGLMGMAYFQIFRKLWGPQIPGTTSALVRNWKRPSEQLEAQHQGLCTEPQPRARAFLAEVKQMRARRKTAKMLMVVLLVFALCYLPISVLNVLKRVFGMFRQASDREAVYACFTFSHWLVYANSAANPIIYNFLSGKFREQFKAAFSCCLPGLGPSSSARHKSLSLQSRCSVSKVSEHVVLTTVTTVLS

With `COc1c(C#N)ccnc1O[C@@H]1CC[C@@H](C)N(C(=O)c2cccc(C)c2-n2nccn2)C1` [Example 101, 3-methoxy-2-{[(3R,6R)-6-methyl-1-{[3-methyl-2-(2H-1,2,3-triazol-2-yl)phenyl]carbonyl}piperidin-3-yl]oxy}pyridine-4-carbonitrile], the Ki at human orexin-2 receptor [1] came out at 0.3 nM. Further, the IC50 (in general, the midpoint of a concentration-inhibition curve) at human orexin-2 receptor [2] was determined as 21 nM; on rat orexin-1 receptor, 957 nM.
The matching figures for `Cc1c(C#N)ccnc1O[C@@H]1CC[C@@H](C)N(C(=O)c2ccc(OCF)nc2-n2nccn2)C1` [Example 88, 2-{[(3R,6R)-1-{[6-(Fluoromethoxy)-2-(2H-1,2,3-triazol-2-yl)pyridin-3-yl]carbonyl}-6-methylpiperidin-3-yl]oxy}-3-methylpyridine-4-carbonitrile]: 9.2 nM, 58 nM and more than 10000 nM.
The matching figures for `COc1cccc(-n2nccn2)c1C(=O)N1C[C@H](Oc2nccc(C#N)c2C)CC[C@H]1C` [Example 14, 2-{[(3R,6R)-1-{[2-methoxy-6-(2H-1,2,3-triazol-2-yl)phenyl]carbonyl}-6-methylpiperidin-3-yl]oxy}-3-methylpyridine-4-carbonitrile]: 0.2 nM, 15 nM and 507 nM.
The matching figures for `Cc1cccc(C(=O)N2C[C@H](Oc3nccc(C#N)c3C)CC[C@H]2C)c1-n1nccn1` [Example 13, 3-methyl-2-{[(3R,6R)-6-methyl-1-{[3-methyl-2-(2H-1,2,3-triazol-2-yl)phenyl]carbonyl}piperidin-3-yl]oxy}pyridine-4-carbonitrile]: 0.2 nM, 9 nM and 215 nM.
Regarding `Cc1c(C#N)ccnc1O[C@@H]1CC[C@@H](C)N(C(=O)c2cc(C#N)ccc2-n2nccn2)C1` [Example 71, 2-{[(3R,6R)-1-{[5-cyano-2-(2H-1,2,3-triazol-2-yl)phenyl]carbonyl}-6-methylpiperidin-3-yl]oxy}-3-methylpyridine-4-carbonitrile], on human orexin-2 receptor [1], the Ki was found to be 5.5 nM. Further, the values for the IC50 on human orexin-2 receptor [2] and at rat orexin-1 receptor were 40 nM and 1850 nM, respectively.
The matching figures for `COc1c(C#N)ccnc1O[C@@H]1CC[C@@H](C)N(C(=O)c2c(F)cccc2-n2nccn2)C1` [Example 100, 2-{[(3R,6R)-1-{[2-fluoro-6-(2H-1,2,3-triazol-2-yl)phenyl]carbonyl}-6-methylpiperidin-3-yl]oxy}-3-methoxypyridine-4-carbonitrile]: 0.3 nM, 25 nM and 1440 nM.
For the molecule `COc1ccc(C(=O)N2C[C@H](Oc3nccc(C#N)c3C)CC[C@H]2C)c(C2CC2)c1` [Example 52, 2-({(3R,6R)-1-[(2-cyclopropyl-4-methoxyphenyl)carbonyl]-6-methylpiperidin-3-yl}oxy)-3-methylpyridine-4-carbonitrile], the Ki on human orexin-2 receptor [1] came to 4.4 nM. Besides, the 50% inhibitory concentration (IC50) stood at 56 nM on human orexin-2 receptor [2] and 7030 nM at rat orexin-1 receptor.
For `Cc1c(C#N)ccnc1O[C@@H]1CC[C@@H](C)N(C(=O)c2ncccc2-c2cscn2)C1` [Example 24, 3-methyl-2-{[(3R,6R)-6-methyl-1-{[3-(1,3-thiazol-4-yl)pyridin-2-yl]carbonyl}piperidin-3-yl]oxy}pyridine-4-carbonitrile] the same measures were 3.8 nM, 24 nM and 4900 nM.
The matching figures for `COc1ccc(C(=O)N2C[C@H](Oc3nccc(C#N)c3C)CC[C@H]2C)c(-c2ccn(C)n2)n1` [Example 81, 2-{[(3R,6R)-1-{[6-methoxy-2-(1-methyl-1H-pyrazol-3-yl)pyridin-3-yl]carbonyl}-6-methylpiperidin-3-yl]oxy}-3-methylpyridine-4-carbonitrile]: 8.4 nM, 64.6 nM and 10000 nM.
The matching figures for `Cc1ccc(C(=O)N2C[C@H](Oc3nccc(C#N)c3C)CC[C@H]2C)c(-c2ncccn2)c1` [Example 76, 3-methyl-2-({(3R,6R)-6-methyl-1-[(4-methyl-2-pyrimidin-2-ylphenyl)carbonyl]piperidin-3-yl}oxy)pyridine-4-carbonitrile]: 2.1 nM, 37 nM and 1270 nM.
Regarding `C[C@@H]1CC[C@@H](Oc2nccc(C#N)c2Cl)CN1C(=O)c1ccccc1-n1nccn1` [Example 91, 3-Chloro-2-{[(3R,6R)-6-methyl-1-{[2-(2H-1,2,3-triazol-2-yl)phenyl]carbonyl}piperidin-3-yl]oxy}pyridine-4-carbonitrile], the Ki at human orexin-2 receptor [1] is 0.8 nM. Moreover, the IC50 is 8 nM at human orexin-2 receptor [2] and 1600 nM on rat orexin-1 receptor.
The matching figures for `C[C@@H]1CC[C@@H](Oc2nccc(C#N)c2C#N)CN1C(=O)c1ccccc1-n1nccn1` [Example 94, 2-{[(3R,6R)-6-methyl-1-{[2-(2H-1,2,3-triazol-2-yl)phenyl]carbonyl}piperidin-3-yl]oxy}pyridine-3,4-dicarbonitrile]: 4.4 nM, 40 nM and more than 10000 nM.
The matching figures for `CCOc1ccccc1C(=O)N1C[C@H](Oc2nccc(C#N)c2C)CC[C@H]1C` [Example 19, 2-({(3R,6R)-1-[(2-ethoxyphenyl)carbonyl]-6-methylpiperidin-3-yl}oxy)-3-methylpyridine-4-carbonitrile]: 0.7 nM, 6 nM and 2100 nM.
For `COc1ccc(C(=O)N2C[C@H](Oc3nccc(C#N)c3C)CC[C@H]2C)c(SC)n1` [Example 84, 2-{[(3R,6R)-1-{[6-Methoxy-2-(methylsulfanyl)pyridin-3-yl]carbonyl}-6-methylpiperidin-3-yl]oxy}-3-methylpyridine-4-carbonitrile] the same measures were 2 nM, 22 nM and more than 10000 nM.
On to `COc1ccc(C(=O)N2C[C@H](Oc3nccc(C#N)c3C)CC[C@H]2C)c(-n2nccn2)n1` [Example 2, 2-{[(3R,6R)-1-{[6-Methoxy-2-(2H-1,2,3-triazol-2-yl)pyridin-3-yl]carbonyl}-6-methylpiperidin-3-yl]oxy}-3-methylpyridine-4-carbonitrile], for which, at human orexin-2 receptor [1], the Ki is 3 nM. Besides, the 50% inhibitory concentration (IC50) at human orexin-2 receptor [2] was 21 nM; on rat orexin-1 receptor, 5930 nM.
The matching figures for `Cc1nc(C(=O)N2C[C@H](Oc3nccc(C#N)c3C)CC[C@H]2C)c(-c2ccc(F)cc2)s1` [Example 41, 2-{[(3R,6R)-1-{[5-(4-fluorophenyl)-2-methyl-1,3-thiazol-4-yl]carbonyl}-6-methylpiperidin-3-yl]oxy}-3-methylpyridine-4-carbonitrile]: 4.6 nM, 48 nM and 1200 nM.
The matching figures for `Cc1c(C#N)ccnc1O[C@@H]1CC[C@@H](C)N(C(=O)c2ccsc2-c2cscn2)C1` [Example 31, 3-methyl-2-{[(3R,6R)-6-methyl-1-{[2-(1,3-thiazol-4-yl)thiophen-3-yl]carbonyl}piperidin-3-yl]oxy}pyridine-4-carbonitrile]: 0.8 nM, 11 nM and 2030 nM.
The matching figures for `Cc1c(C#N)ccnc1O[C@@H]1CC[C@@H](C)N(C(=O)c2cccnc2-c2ccccc2)C1` [Example 60, 3-methyl-2-({(3R,6R)-6-methyl-1-[(2-phenylpyridin-3-yl)carbonyl]piperidin-3-yl}oxy)pyridine-4-carbonitrile]: 2.6 nM, 26 nM and 4670 nM.
On to `Cc1c(C#N)ccnc1O[C@@H]1CC[C@@H](C)N(C(=O)c2cc(F)ccc2-c2nccs2)C1` [Example 28, 2-{[(3R,6R)-1-{[5-fluoro-2-(1,3-thiazol-2-yl)phenyl]carbonyl}-6-methylpiperidin-3-yl]oxy}-3-methylpyridine-4-carbonitrile], for which the Ki at human orexin-2 receptor [1] worked out at 0.1 nM. For the same molecule, the IC50 was 5 nM at human orexin-2 receptor [2] and 412 nM at rat orexin-1 receptor.
For `Cc1c(C#N)ccnc1O[C@@H]1CC[C@@H](C)N(C(=O)c2ccccc2C2CC2)C1` [Example 16, 2-({(3R,6R)-1-[(2-cyclopropylphenyl)carbonyl]-6-methylpiperidin-3-yl}oxy)-3-methylpyridine-4-carbonitrile] the same measures were 0.7 nM, 9 nM and 1740 nM.
